Measurements taken from patent US11623929B2, “Spirocyclic compounds” (C4 Therapeutics, Inc., priority 2018, dated 2023).
pKd: −log10 of the molar value.

Molecular target: h-Cereblon_DDB1 (hCereblon(M1-L442)_hDDB1(M1-H1140)) (Homo sapiens (Human), UniProt Q96SW2)
Assay: Fluorescence direct binding (tryptophan fluorescence titration)
Conditions: 20° C., excitation 280 nm, emission 340 nm, assay buffer 50 mM Hepes 7.4 200 mM NaCl, protein 5.0 E−8 M; read-out: Fluorescence h-Cereblon_DDB1 Mean Kd_EQ
Description: Fluorescence Direct Binding Protocol
Determination of the affinities of compounds to protein containing one or more tryptophan is measurable by monitoring the fluorescence emission in direct mode. The measurements depending on the protein available amounts are performed either manually in a cuvette on ISS-PC1 photon counting spectrofluorometer or automatically in well plates on a fluorescence plate reader device. Fluorescence titrations are performed at 20° C. in the chosen binding assay buffer by using a defined constant protein concentration against ligand concentration variations. Small aliquots of known ligand concentration solubilized in DMSO were added and the fluorescence, excited at 280 nm, was recorded at 340 nm. The fluorescence intensity was corrected for protein dilution and for the filter effect (Birdsall, B., et al. (1983). Anal. Biochem. 132, 353-361). The corrected fluorescence intensity was plotted against the ligand concentration and fitted using a four-parameter sigmoidal function, from which the equilibrium dissociation constant Kd was computed using the law of mass action assuming a 1:1 protein-ligand complex (Eftink, Methods Enzymol. 1997; 278:221-57).
The Fluorescence Direct Binding Protocol Process includes:
• 1) Optimization of measurement parameters to minimize protein consumption and to minimize the dilution effect and the DMSO content • 2) Titration measurements of the protein against ligand by at least 12 titration steps to obtain a good s-curve fit • 3) Repeat the same titration measurements with the ligand alone to enable correction • 4) Check the stability of the protein once by titration against DMSO alone • 5) Determination of the molar extinction coefficients of the ligand at 280 and 340 nm with help of an UV-spectrophotometer • 6) Use Excel template for the correction of the measured raw data • 7) Use GraphPad Prism software for the quadratic binding fit and the KD evaluation.

Chain of h-Cereblon_DDB1 (hCereblon(M1-L442)_hDDB1(M1-H1140)) (Q96SW2 whole entry): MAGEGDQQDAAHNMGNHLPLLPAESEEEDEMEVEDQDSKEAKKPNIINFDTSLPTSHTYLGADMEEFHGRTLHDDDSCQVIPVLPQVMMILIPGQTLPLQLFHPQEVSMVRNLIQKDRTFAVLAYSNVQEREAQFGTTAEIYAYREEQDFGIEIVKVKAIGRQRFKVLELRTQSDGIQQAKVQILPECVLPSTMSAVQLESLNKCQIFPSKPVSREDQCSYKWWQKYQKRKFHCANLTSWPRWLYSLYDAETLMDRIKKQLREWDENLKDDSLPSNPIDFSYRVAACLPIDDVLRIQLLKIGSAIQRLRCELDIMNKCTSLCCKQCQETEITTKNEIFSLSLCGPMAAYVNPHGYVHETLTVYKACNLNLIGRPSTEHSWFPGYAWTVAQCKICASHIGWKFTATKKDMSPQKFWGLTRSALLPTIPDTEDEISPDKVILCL
Chain of h-Cereblon_DDB1 (hCereblon(M1-L442)_hDDB1(M1-H1140)) (Q16531 whole entry partner): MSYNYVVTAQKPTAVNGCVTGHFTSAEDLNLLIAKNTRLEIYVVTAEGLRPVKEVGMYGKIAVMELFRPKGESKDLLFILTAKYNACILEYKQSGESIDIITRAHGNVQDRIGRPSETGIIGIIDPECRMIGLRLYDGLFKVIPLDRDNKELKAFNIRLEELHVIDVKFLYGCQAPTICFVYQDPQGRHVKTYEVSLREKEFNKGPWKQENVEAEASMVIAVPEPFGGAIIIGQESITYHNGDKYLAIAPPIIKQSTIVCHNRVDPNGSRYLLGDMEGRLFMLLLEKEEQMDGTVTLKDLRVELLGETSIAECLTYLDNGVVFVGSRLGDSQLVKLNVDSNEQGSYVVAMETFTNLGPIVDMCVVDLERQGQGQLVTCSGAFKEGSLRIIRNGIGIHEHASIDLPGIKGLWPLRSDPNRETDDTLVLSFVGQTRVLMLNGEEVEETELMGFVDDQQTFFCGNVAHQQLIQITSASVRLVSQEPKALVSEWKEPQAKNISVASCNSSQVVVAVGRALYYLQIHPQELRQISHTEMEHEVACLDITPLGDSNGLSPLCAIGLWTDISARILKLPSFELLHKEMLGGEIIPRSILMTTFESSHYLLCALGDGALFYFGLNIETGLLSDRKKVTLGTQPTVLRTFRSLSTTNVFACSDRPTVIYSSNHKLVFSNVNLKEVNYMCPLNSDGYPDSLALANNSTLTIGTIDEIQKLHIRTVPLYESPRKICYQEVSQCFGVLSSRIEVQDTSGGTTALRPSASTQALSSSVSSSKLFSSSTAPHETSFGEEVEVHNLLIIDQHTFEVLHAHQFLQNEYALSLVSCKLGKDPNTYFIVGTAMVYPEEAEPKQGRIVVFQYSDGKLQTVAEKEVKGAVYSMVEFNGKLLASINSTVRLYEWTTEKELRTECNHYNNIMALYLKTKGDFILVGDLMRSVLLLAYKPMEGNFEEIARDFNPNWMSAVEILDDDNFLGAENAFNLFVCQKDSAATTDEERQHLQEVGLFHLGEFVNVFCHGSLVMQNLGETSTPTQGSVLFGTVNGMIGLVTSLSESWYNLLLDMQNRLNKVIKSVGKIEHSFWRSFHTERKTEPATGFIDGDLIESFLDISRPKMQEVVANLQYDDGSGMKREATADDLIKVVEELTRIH

Row | Compound | pKd
1 | O=C1NC(=O)C2(CCN(C(=O)c3ccc4scnc4c3)C2)N1 (stereo not drawn) [Example 14, 7-(Benzo[d]thiazole-5-carbonyl)-1,3,7-triazaspiro[4.4]nonane-2,4-dione] | 7.59
2 | O=C1NC(=O)C2(CCN(C(=O)c3ccccc3)C2)N1 (stereo not drawn) [Example 1, 7-Benzoyl-1,3,7-triazaspiro[4.4]nonane-2,4-dione] | 8.40
3 | O=C1CC2(CCN(c3nc4ccccc4s3)C2)C(=O)N1 (stereo not drawn) [Example 11, 7-(Benzo[d]thiazol-2-yl)-2,7-diazaspiro[4.4]nonane-1,3-dione] | 7.74
4 | O=C1NC(=O)C2(CCN(C(=O)[C@H]3CCCc4ccccc43)C2)N1 (stereo partly drawn) [Example 2, 7-((S)-1,2,3,4-Tetrahydronaphthalene-1-carbonyl)-1,3,7-triazaspiro[4.4]nonane-2,4-dione] | 8.52
5 | CC(=O)Nc1cccc(C(=O)N2CCC3(C2)NC(=O)NC3=O)c1 (stereo not drawn) [Example 6, N-(3-(2,4-Dioxo-1,3,7-triazaspiro[4.4]nonane-7-carbonyl)phenyl)acetamide] | 8.00
6 | COC(=O)c1ccc(N2CCC3(CC(=O)NC3=O)C2)nc1 (stereo not drawn) [Example 10, Methyl 6-(6,8-dioxo-2,7-diazaspiro[4.4]nonan-2-yl)nicotinate] | 8.00
7 | O=C1NC(=O)C2(CCN(c3nc4ccccc4s3)C2)N1 (stereo not drawn) [Example 3, 7-(Benzo[d]thiazol-2-yl)-1,3,7-triazaspiro[4.4]nonane-2,4-dione] | 7.51
8 | O=C1NC(=O)C2(CCN(C(=O)c3ccc4scnc4c3)C2)N1 (stereo not drawn) [Example 9, 7-(Benzo[d]thiazole-5-carbonyl)-1,3,7-triazaspiro[4.4]nonane-2,4-dione] | 7.49
9 | O=C1CC2(CCN(C(=O)c3cnn4ccccc34)C2)C(=O)N1 (stereo not drawn) [Example 12, 7-(Pyrazolo[1,5-a]pyridine-3-carbonyl)-2,7-diazaspiro[4.4]nonane-1,3-dione] | 8.22
10 | O=C1CC2(CCN(C(=O)c3ccccc3)C2)C(=O)N1 (stereo not drawn) [Example 13, 7-Benzoyl-2,7-diazaspiro[4.4]nonane-1,3-dione] | 7.82
11 | O=C1NC(=O)C2(CCN(C(=O)c3ccc4scnc4c3)C2)N1 (stereo not drawn) [Example 15, 7-(Benzo[d]thiazole-5-carbonyl)-1,3,7-triazaspiro[4.4]nonane-2,4-dione] | 7.64
12 | CC(=O)Nc1ccc(C(=O)N2CCC3(C2)NC(=O)NC3=O)cc1 (stereo not drawn) [Example 7, N-(4-(2,4-Dioxo-1,3,7-triazaspiro[4.4]nonane-7-carbonyl)phenyl)acetamide] | 6.79
13 | O=C1NC(=O)C2(CCN(C(=O)c3cnn4ccccc34)C2)N1 (stereo not drawn) [Example 4, 7-(Pyrazolo[1,5-a]pyridine-3-carbonyl)-1,3,7-triazaspiro[4.4]nonane-2,4-dione] | 7.43
14 | COC(=O)c1ccc(N2CCC3(C2)NC(=O)NC3=O)nc1 (stereo not drawn) [Example 5, Methyl 6-(2,4-dioxo-1,3,7-triazaspiro[4.4]nonan-7-yl)nicotinate] | 8.70
15 | O=C1NC(=O)C2(CCN(c3nc4ncccc4s3)C2)N1 (stereo not drawn) [Example 8, 7-(Thiazolo[4,5-b]pyridin-2-yl)-1,3,7-triazaspiro[4.4]nonane-2,4-dione] | 8.15
